# Source: patent US10968184B2, “Pyrimidine prodrugs for the treatment of viral infections and further diseases” (Janssen Sciences Ireland Unlimited Company, priority 2016, dated 2021)
# Experiments:
# in vitro [1] = details: human, liver microsomes
# in vitro [2] = details: rat, plasma
# in vitro [3] = details: rat, liver microsomes
# in vitro [4] = details: human, plasma
# [5] = tested on: P-glycoprotein (human MDR1); assay: in vitro; details: dog, MDCK-MDR1
# in vitro [6] = details: simulated gi fluid
# in vitro [7] = details: rat, hepatocytes
# in vitro [8] = details: human, hepatocytes
# [9] = Pharmacokinetics in rat after oral administration; assay type: in vivo; details: SD rats, aqueous solution, 5 mg/kg eq dose, prodrug in plasma; for AUC(0-t): read-out: AUC(0-last) prodrug
# Experimental: Pharmacokinetics in rat. Prodrugs were administered orally to SD rats using aqueous solution at 5 mg/kg eq dose. Plasma samples were collected at different time points and the concentration of parent and prodrug was analyzed using LC-MS/MS. PK parameters were calculated using Phoenix WinNonlin 6.3. Cmax (ng/mL) and AUC(0-last) (ng·h/mL) were determined for both prodrug and parent.
# in vitro [10] = details: simulated gi fluid; remark: listed apart in the source
microsomal CLint at 1 μM (in vitro [1]),half-life at 1 μM (in vitro [2]),microsomal CLint at 1 μM (in vitro [3]),half-life at 1 μM (in vitro [4]),Papp A→B [5],efflux ratio [5],half-life (in vitro [6]),hepatocyte CLint at 1 μM (in vitro [7]),hepatocyte CLint at 1 μM (in vitro [8]),melting point,Cmax [9],AUC(0-t) [9],half-life (in vitro [10]),Compound
115 µL/min/mg,< 0.4 h,27 µL/min/mg,< 0.4 h,,,,,,,,,,"CCCC[C@H](CO)Nc1nc(NC2CCCO2)ncc1OC (stereo partly drawn) [Compound 9, (2R)-2-((5-methoxy-2-((tetrahydrofuran-2-yl)amino)pyrimidin-4-yl)-amino)hexan-1-ol]"
14 µL/min/mg,> 30 h,141 µL/min/mg,> 30 h,20 ×10⁻⁶ cm/s,3.2,> 6 h,280 µL/min/1e6 cells,80 µL/min/1e6 cells,86.1 °C,88 ng/mL,144 ng·h/mL,> 6 h,"CCCC[C@H](CO)Nc1nc(N(C)C)ncc1OC [Compound 5, (R)-2-((2-(dimethylamino)-5-methoxypyrimidin-4-yl)amino)hexan-1-ol]"
88 to 90 µL/min/mg,1.4 h,> 347 µL/min/mg,1.4 h,1.8 ×10⁻⁶ cm/s,33,,,,,,,,"CCCC[C@H](CO)Nc1nc(NC2CCCCO2)ncc1OC (stereo partly drawn) [Compound 10, (2R)-2-((5-methoxy-2-((tetrahydro-2H-pyran-2-yl)amino)pyrimidin-4-yl)-amino)hexan-1-ol]"
18 µL/min/mg,> 30 h,25 µL/min/mg,> 30 h,6.8 ×10⁻⁶ cm/s,10,> 6 h,120 µL/min/1e6 cells,33 µL/min/1e6 cells,,129 ng/mL,206 ng·h/mL,> 6 h,CCCC[C@H](CO)Nc1nc(NC)ncc1OC [Compound 6]
